Test results as given in patent US20260265265A1, “NOVEL BENZIMIDAZOLONE DERIVATIVE COMPOUND AS AUTOTAXIN INHIBITOR” (LG CHEM, LTD., priority 2023, published 2026).
pIC50: −log10 of the molar value.

target: T1, Recombinant Human ENPP-2/Autotaxin (Homo sapiens, UniProt Q13822); assay: LysoPLD activity measurement (autotaxin enzyme inhibition, choline release, TOOS reagent); type: biochemical; settings: LysoPLD inhibitory activity; substrate 14:0 LysoPC; absorbance at 555 nm
T1 construct: purchased R&D systems 5255-EN
Description: Such a measurement method is a method of measuring the amount of choline, which is a reaction product in an autotaxin enzyme reaction, using a TOOS reagent. Depending on the activity of the autotaxin inhibitor, the amount of choline produced as a reaction product varies, which affects the final absorbance.
After 30 min, 14:0 LysoPC of the substrate diluted to a concentration of 300 μM with the enzyme reaction buffer solution was dispensed into each well by 50 μL and allowed to stand at 37° C. for 90 minutes. At this time, negative control wells were dispensed with 1% DMSO, substrate, and autotaxin instead of the compound, and positive control wells were dispensed with 1% DMSO and substrate.

pIC50	SMILES
7.00 to 8.00	CN(C)C(=O)c1ccc(-n2c(=O)n(Cc3cccc(C(=O)O)c3)c3ccc(Cl)cc32)cc1F [Example 36, 3-((5-chloro-3-(4-(dimethylcarbamoyl)-3-fluorophenyl)-2-oxo-2,3-dihydro-1H-benzo[d]imidazol-1-yl)methyl)benzoic acid]
6.00 to 7.00	CN(C)c1ccc(-n2c(=O)n(Cc3cccc(C(=O)O)c3)c3cc(Cl)cc(F)c32)cc1 [Example 37, 3-((6-chloro-3-(4-(dimethylamino)phenyl)-4-fluoro-2-oxo-2,3-dihydro-1H-benzo[d]imidazol-1-yl)methyl)benzoic acid]
> 8.00	CN(C)C(=O)c1ccc(-n2c(=O)n(Cc3cccc(C(=O)O)c3F)c3ccc(Cl)cc32)cc1 [Example 38, 3-((5-chloro-3-(4-(dimethylcarbamoyl)phenyl)-2-oxo-2,3-dihydro-1H-benzo[d]imidazol-1-yl)methyl)-2-fluorobenzoic acid]
7.00 to 8.00	CN(C)c1ccc(-n2c(=O)n(Cc3cccc(C(=O)O)c3F)c3ccc(Cl)cc32)cc1 [Example 39, 3-((5-chloro-3-(4-(dimethylamino)phenyl)-2-oxo-2,3-dihydro-1H-benzo[d]imidazol-1-yl)methyl)-2-fluorobenzoic acid]
7.00 to 8.00	CC(C)Oc1ccc(-n2c(=O)n(Cc3cccc(C(=O)O)c3F)c3ccc(Cl)cc32)cc1 [Example 40, 3-((5-chloro-3-(4-isopropoxyphenyl)-2-oxo-2,3-dihydro-1H-benzo[d]imidazol-1-yl)methyl)-2-fluorobenzoic acid]
7.00 to 8.00	CS(=O)(=O)Nc1ccc(-n2c(=O)n(Cc3cccc(C(=O)O)c3F)c3ccc(Cl)cc32)cc1 [Example 41, 3-((5-chloro-3-(4-(methylsulfonamido)phenyl)-2-oxo-2,3-dihydro-1H-benzo[d]imidazol-1-yl)methyl)-2-fluorobenzoic acid]
6.00 to 7.00	O=C(O)c1cccc(Cn2c(=O)n(-c3ccc(OCC4CC4)cc3)c3cc(Cl)ccc32)c1 [Example 42, 3-((5-chloro-3-(4-(cyclopropylmethoxy)phenyl)-2-oxo-2,3-dihydro-1H-benzo[d]imidazol-1-yl)methyl)benzoic acid]
> 8.00	O=C(O)c1cccc(Cn2c(=O)n(-c3ccc(C(=O)N4CCCCC4)cc3)c3cc(Cl)ccc32)c1 [Example 43, 3-((5-chloro-2-oxo-3-(4-(piperidine-1-carbonyl)phenyl)-2,3-dihydro-1H-benzo[d]imidazol-1-yl)methyl)benzoic acid]
7.00 to 8.00	O=C(O)c1cccc(Cn2c(=O)n(-c3ccc(C(=O)N4CCOCC4)cc3)c3cc(Cl)ccc32)c1 [Example 44, 3-((5-chloro-3-(4-(morpholine-4-carbonyl)phenyl)-2-oxo-2,3-dihydro-1H-benzo[d]imidazol-1-yl)methyl)benzoic acid]
> 8.00	O=C(O)c1cccc(Cn2c(=O)n(-c3ccc(C(=O)N4CCCC4)cc3)c3cc(Cl)ccc32)c1 [Example 45, 3-((5-chloro-2-oxo-3-(4-(pyrrolidine-1-carbonyl)phenyl)-2,3-dihydro-1H-benzo[d]imidazol-1-yl)methyl)benzoic acid]
6.00 to 7.00	O=C(O)c1cccc(Cn2c(=O)n(-c3ccc(C(=O)O)cc3F)c3cc(Cl)ccc32)c1 [Example 46, 4-(3-(3-carboxybenzyl)-6-chloro-2-oxo-2,3-dihydro-1H-benzo[d]imidazol-1-yl)-3-fluorobenzoic acid]
7.00 to 8.00	O=C(O)c1cccc(Cn2c(=O)n(-c3ccc(N4CCOCC4)cc3)c3cc(Cl)ccc32)c1 [Example 47, 3-((5-chloro-3-(4-morpholinophenyl)-2-oxo-2,3-dihydro-1H-benzo[d]imidazol-1-yl)methyl)benzoic acid]
7.00 to 8.00	O=C(O)c1cc(Cn2c(=O)n(-c3ccc(N4CCOCC4)cc3)c3c(F)c(Cl)ccc32)ccc1F [Example 48, 5-((5-chloro-4-fluoro-3-(4-morpholinophenyl)-2-oxo-2,3-dihydro-1H-benzo[d]imidazol-1-yl)methyl)-2-fluorobenzoic acid]
7.00 to 8.00	O=C(O)c1cc(F)cc(Cn2c(=O)n(-c3ccc(N4CCOCC4)cc3)c3c(F)c(Cl)ccc32)c1 [Example 49, 3-((5-chloro-4-fluoro-3-(4-morpholinophenyl)-2-oxo-2,3-dihydro-1H-benzo[d]imidazol-1-yl)methyl)-5-fluorobenzoic acid]
7.00 to 8.00	O=C(O)c1ccc(F)c(Cn2c(=O)n(-c3ccc(N4CCOCC4)cc3)c3c(F)c(Cl)ccc32)c1 [Example 50, 3-((5-chloro-4-fluoro-3-(4-morpholinophenyl)-2-oxo-2,3-dihydro-1H-benzo[d]imidazol-1-yl)methyl)-4-fluorobenzoic acid]
> 8.00	O=C(O)c1cccc(Cn2c(=O)n(-c3ccc(N4CCOCC4)cc3)c3c(F)c(Cl)ccc32)c1F [Example 51, 3-((5-chloro-4-fluoro-3-(4-morpholinophenyl)-2-oxo-2,3-dihydro-1H-benzo[d]imidazol-1-yl)methyl)-2-fluorobenzoic acid]

pIC50	SMILES
7.00 to 8.00	O=C(O)c1cccc(Cn2c(=O)n(-c3ccc(N4CCOCC4)cc3)c3c(F)c(Cl)ccc32)n1 [Example 52, 6-((5-chloro-4-fluoro-3-(4-morpholinophenyl)-2-oxo-2,3-dihydro-1H-benzo[d]imidazol-1-yl)methyl)picolinic acid]
7.00 to 8.00	O=C(O)c1cccc(Cn2c(=O)n(-c3ccc(N4CC(O)C4)cc3)c3c(F)c(Cl)ccc32)c1 [Example 53, 3-((5-chloro-4-fluoro-3-(4-(3-hydroxyazetidin-1-yl)phenyl)-2-oxo-2,3-dihydro-1H-benzo[d]imidazol-1-yl)methyl)benzoic acid]
> 8.00	CN(C)C(=O)c1ccc(-n2c(=O)n(Cc3cccc(C(=O)O)c3)c3c(F)cc(Cl)cc32)cc1 [Example 54, 3-((5-chloro-3-(4-(dimethylcarbamoyl)phenyl)-7-fluoro-2-oxo-2,3-dihydro-1H-benzo[d]imidazol-1-yl)methyl)benzoic acid]
7.00 to 8.00	CSc1ccc(-n2c(=O)n(Cc3cccc(C(=O)O)c3F)c3ccc(Cl)cc32)cc1 [Example 55, 3-((5-chloro-3-(4-(methylthio)phenyl)-2-oxo-2,3-dihydro-1H-benzo[d]imidazol-1-yl)methyl)-2-fluorobenzoic acid]
> 8.00	O=C(O)c1cccc(Cn2c(=O)n(-c3ccc(C(=O)N4CCCC4)cc3)c3cc(Cl)ccc32)c1F [Example 56, 3-((5-chloro-2-oxo-3-(4-(pyrrolidine-1-carbonyl)phenyl)-2,3-dihydro-1H-benzo[d]imidazol-1-yl)methyl)-2-fluorobenzoic acid]
> 8.00	O=C(O)c1cccc(Cn2c(=O)n(-c3ccc(C(=O)N4CCCCC4)cc3)c3cc(Cl)ccc32)c1F [Example 57, 3-((5-chloro-2-oxo-3-(4-(piperidine-1-carbonyl)phenyl)-2,3-dihydro-1H-benzo[d]imidazol-1-yl)methyl)-2-fluorobenzoic acid]
7.00 to 8.00	COC1CCN(C(=O)c2ccc(-n3c(=O)n(Cc4cccc(C(=O)O)c4)c4ccc(Cl)cc43)cc2)C1 (stereo not shown) [Example 59, 3-((5-chloro-3-(4-(3-methoxypyrrolidine-1-carbonyl)phenyl)-2-oxo-2,3-dihydro-1H-benzo[d]imidazol-1-yl)methyl)benzoic acid]
> 8.00	CN1CCN(C(=O)c2ccc(-n3c(=O)n(Cc4cccc(C(=O)O)c4)c4ccc(Cl)cc43)cc2)CC1 [Example 60, 3-((5-chloro-3-(4-(4-methylpiperazine-1-carbonyl)phenyl)-2-oxo-2,3-dihydro-1H-benzo[d]imidazol-1-yl)methyl)benzoic acid]
> 8.00	O=C(O)c1cccc(Cn2c(=O)n(-c3ccc(C(=O)N4CCC(O)CC4)cc3)c3cc(Cl)ccc32)c1 [Example 61, 3-((5-chloro-3-(4-(4-hydroxypiperidin-1-carbonyl)phenyl)-2-oxo-2,3-dihydro-1H-benzo[d]imidazol-1-yl)methyl)benzoic acid]
> 8.00	COC1CCN(C(=O)c2ccc(-n3c(=O)n(Cc4cccc(C(=O)O)c4)c4ccc(Cl)cc43)cc2)CC1 [Example 62, 3-((5-chloro-3-(4-(4-methoxypiperidine-1-carbonyl)phenyl)-2-oxo-2,3-dihydro-1H-benzo[d]imidazol-1-yl)methyl)benzoic acid]
> 8.00	O=C(O)c1cccc(C2(n3c(=O)n(-c4ccc(C(=O)N5CCCC5)cc4)c4cc(Cl)ccc43)CC2)c1 [Example 63, 3-(1-(5-chloro-2-oxo-3-(4-(pyrrolidine-1-carbonyl)phenyl)-2,3-dihydro-1H-benzo[d]imidazol-1-yl)cyclopropyl)benzoic acid]
> 8.00	O=C(O)c1cccc(C2(n3c(=O)n(-c4ccc(C(=O)N5CCCCC5)cc4)c4cc(Cl)ccc43)CC2)c1 [Example 64, 3-(1-(5-chloro-2-oxo-3-(4-(piperidin-1-carbonyl)phenyl)-2,3-dihydro-1H-benzo[d]imidazol-1-yl)cyclopropyl)benzoic acid]
7.00 to 8.00	CN(C)c1ccc(-n2c(=O)n(Cc3cc(F)cc(C(=O)O)c3)c3c(F)cc(Cl)cc32)cc1 [Example 65, 3-((5-chloro-3-(4-(dimethylamino)phenyl)-7-fluoro-2-oxo-2,3-dihydro-1H-benzo[d]imidazol-1-yl)methyl)-5-fluorobenzoic acid]
7.00 to 8.00	CN(C)c1ccc(-n2c(=O)n(Cc3cccc(C(=O)O)c3)c3c(F)cc(Cl)cc32)cc1 [Example 66, 3-((5-chloro-3-(4-(dimethylamino)phenyl)-7-fluoro-2-oxo-2,3-dihydro-1H-benzo[d]imidazol-1-yl)methyl)benzoic acid]
> 8.00	O=C(O)c1cccc(C2(n3c(=O)n(-c4ccc(C(=O)N5CCCC5)cc4)c4cc(Cl)ccc43)CC2)c1F [Example 67, 3-(1-(5-chloro-2-oxo-3-(4-(pyrrolidine-1-carbonyl)phenyl)-2,3-dihydro-1H-benzo[d]imidazol-1-yl)cyclopropyl)-2-fluorobenzoic acid]
